According to paper PMC10300155, “Inhibition of TRPV4 remodels single cell polarity and suppresses the metastasis of hepatocellular carcinoma” (Cell Death & Disease, 2023):

How the values were obtained:
[1] = biological target: T1, TRPV4 (purified, fluorescently labeled) (Homo sapiens, UniProt Q9HBA0); test: microscale thermophoresis (Monolith NT.[…]); format: binding
T1 construct: purified protein, fluorescently labeled for MST

[2] = biological target: T2, TRPV4 (native, MHCC-97H cells) (Homo sapiens, UniProt Q9HBA0); test: Fluo-4 AM calcium influx, flow cytometry; format: cell-based; conditions: inhibitor; 0.5 h pre-treatment; agonist GSK1016790A; adherent MHCC-97H cells
T2 construct: endogenous channel in human hepatocellular carcinoma MHCC-97H cells
T2 sequence (Q9HBA0 whole entry): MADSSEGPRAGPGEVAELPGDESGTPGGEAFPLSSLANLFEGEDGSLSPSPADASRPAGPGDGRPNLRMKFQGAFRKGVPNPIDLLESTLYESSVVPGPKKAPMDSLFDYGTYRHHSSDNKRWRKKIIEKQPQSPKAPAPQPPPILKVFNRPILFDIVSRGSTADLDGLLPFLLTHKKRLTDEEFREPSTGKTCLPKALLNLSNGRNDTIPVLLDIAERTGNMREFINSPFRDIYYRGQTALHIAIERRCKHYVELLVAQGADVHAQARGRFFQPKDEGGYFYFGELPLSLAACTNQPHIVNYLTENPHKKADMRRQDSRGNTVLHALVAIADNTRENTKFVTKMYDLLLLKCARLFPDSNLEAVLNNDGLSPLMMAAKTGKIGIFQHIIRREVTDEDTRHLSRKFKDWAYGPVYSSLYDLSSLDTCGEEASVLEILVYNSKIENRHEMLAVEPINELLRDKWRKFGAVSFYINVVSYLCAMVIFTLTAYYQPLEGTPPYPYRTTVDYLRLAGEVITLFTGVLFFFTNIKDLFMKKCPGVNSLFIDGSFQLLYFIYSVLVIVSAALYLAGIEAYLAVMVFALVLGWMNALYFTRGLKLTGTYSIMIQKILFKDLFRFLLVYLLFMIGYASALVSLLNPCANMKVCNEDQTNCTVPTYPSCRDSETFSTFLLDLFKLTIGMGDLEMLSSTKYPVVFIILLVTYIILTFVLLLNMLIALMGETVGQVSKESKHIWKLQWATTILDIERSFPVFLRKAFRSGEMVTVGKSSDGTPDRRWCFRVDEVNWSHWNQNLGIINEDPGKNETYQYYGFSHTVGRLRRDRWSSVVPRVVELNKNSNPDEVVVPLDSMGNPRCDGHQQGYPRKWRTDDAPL

T1 sequence (Q9HBA0 whole entry): as above

COc1c(OCCCCN2CCCC2)cc(O)c2c(=O)cc(-c3ccccc3)oc12 [GL-V9, 5-hydroxy-8-methoxy-2-phenyl-7-(4-(pyrro-lidin-1-yl)butoxy)4H-chromen-4-one]
Kd [1]: 106 nM
Fluo-4 AM calcium influx, flow cytometry [2]: substantially reduced the calcium influx brought on by GSK1016790A
